Measured values published in ChEMBL document CHEMBL5107949, “Design, synthesis, and antibacterial activity of N-(trifluoromethyl)phenyl substituted pyrazole derivatives” (RSC Med Chem, 2021).
In brackets after ≈: the same amount, converted by molar mass. Activity calls are given as the source filed them. The calls are words filed in the database; no cut-off is given here.

How the values were obtained:
Enterococcus faecalis [1] = test: Antibacterial activity against Enterococcus faecalis clinical isolate 1091563 assessed as inhibition of bacterial growth by CLSI protocol based broth microdilution method; assay type: functional
Enterococcus faecalis [2] = test: Antibacterial activity against Enterococcus faecalis clinical isolate 1091720 assessed as inhibition of bacterial growth by CLSI protocol based broth microdilution method; assay type: functional
Staphylococcus aureus [3] = test: Inhibition of protein synthesis in Staphylococcus aureus ATCC 29213 at 0.25 times MIC preincubated for 30 mins followed by [3H]-leucine and measured after 40 mins by [3H]-leucine incorporation based beta scintillation counter analysis; assay type: functional; settings: time 70.0 min
Staphylococcus aureus [4] = test: Inhibition of DNA synthesis in Staphylococcus aureus ATCC 29213 at 0.25 times MIC preincubated for 30 mins followed by [3H]-thymidine and measured after 30 mins by [3H]-thymidine incorporation based beta scintillation counter analysis; assay type: functional; settings: time 60 min; 1 h
Staphylococcus aureus [5] = test: Bactericidal activity against Staphylococcus aureus ATCC 700699 persisters assessed as log reduction in colony forming unit at 2 to 32 times MIC measured for 4 hrs by time kill assay; assay type: functional, organism-based; settings: DDE = dose-dependent effect
Enterococcus faecium [6] = test: Antibacterial activity against vancomycin resistant Enterococcus faecium ATCC 700221 assessed as inhibition of bacterial growth by CLSI protocol based broth microdilution method; assay type: functional
Staphylococcus aureus [7] = test: Inhibition of RNA synthesis in Staphylococcus aureus ATCC 29213 at 0.5 times MIC preincubated for 30 mins followed by [3H]-uridine and measured after 30 mins by [3H]-uridine incorporation based beta scintillation counter analysis; assay type: functional; settings: time 60 min; 1 h
Staphylococcus aureus [8] = test: Antibacterial activity against Staphylococcus aureus clinical isolate 1088610 assessed as inhibition of bacterial growth by CLSI protocol based broth microdilution method; assay type: functional
Staphylococcus aureus [9] = test: Bactericidal activity against Staphylococcus aureus ATCC 700699 persisters assessed as log reduction in colony forming unit at 16 times MIC after 4 hrs by colony counting method; assay type: functional
Staphylococcus aureus [10] = test: Inhibition of protein synthesis in Staphylococcus aureus ATCC 29213 at 0.5 times MIC preincubated for 30 mins followed by [3H]-leucine and measured after 40 mins by [3H]-leucine incorporation based beta scintillation counter analysis; assay type: functional; settings: time 70.0 min
Staphylococcus aureus [11] = test: Antibacterial activity against Staphylococcus aureus ATCC 29213 assessed as inhibition of bacterial growth by CLSI protocol based broth microdilution method; assay type: functional
Staphylococcus aureus [12] = test: Antibacterial activity against antibiotic resistant Staphylococcus aureus ATCC 700699 assessed as inhibition of bacterial growth by CLSI protocol based broth microdilution method; assay type: functional
Staphylococcus aureus [13] = test: Antibacterial activity against Staphylococcus aureus clinical isolate 1088064 assessed as inhibition of bacterial growth by CLSI protocol based broth microdilution method; assay type: functional
Staphylococcus aureus [14] = test: Antibacterial activity against Staphylococcus aureus clinical isolate 1088888 assessed as inhibition of bacterial growth by CLSI protocol based broth microdilution method; assay type: functional
Bacillus subtilis = test: Antibacterial activity against antibiotic resistant Bacillus subtilis ATCC 6623 assessed as inhibition of bacterial growth by CLSI protocol based broth microdilution method; assay type: functional
Staphylococcus aureus [15] = test: Bactericidal activity against Staphylococcus aureus ATCC 700699 persisters assessed as log reduction in colony forming unit at 16 times MIC measured for 4 hrs by time kill assay; assay type: functional
Staphylococcus aureus [16] = test: Inhibition of RNA synthesis in Staphylococcus aureus ATCC 29213 at 0.25 times MIC preincubated for 30 mins followed by [3H]-uridine and measured after 30 mins by [3H]-uridine incorporation based beta scintillation counter analysis; assay type: functional; settings: time 60 min; 1 h
Staphylococcus aureus [17] = test: Antibacterial activity against Staphylococcus aureus clinical isolate 1089106 assessed as inhibition of bacterial growth by CLSI protocol based broth microdilution method; assay type: functional
Enterococcus faecalis [18] = test: Inhibition of biofilm formation in Enterococcus faecalis ATCC 29212 at 6.25 ug/ml incubated for 24 hrs by Calgary biofilm device assay; assay type: functional; settings: dose 6.25 µg/ml
Enterococcus faecalis [19] = test: Anti-biofilm activity against Enterococcus faecalis ATCC 29212 assessed as biofilm eradication at 3.125 to 12.5 ug/ml incubated for 24 hrs by Calgary biofilm device assay; assay type: functional, organism-based; settings: dose 3.125-12.5 µg/ml
Staphylococcus aureus [20] = test: Inhibition of DNA synthesis in Staphylococcus aureus ATCC 29213 at 1 times MIC preincubated for 30 mins followed by [3H]-thymidine and measured after 30 mins by [3H]-thymidine incorporation based beta scintillation counter analysis; assay type: functional; settings: time 60 min; 1 h
Staphylococcus aureus [21] = test: Inhibition of DNA synthesis in Staphylococcus aureus ATCC 29213 at 0.5 times MIC preincubated for 30 mins followed by [3H]-thymidine and measured after 30 mins by [3H]-thymidine incorporation based beta scintillation counter analysis; assay type: functional; settings: time 60 min; 1 h
Staphylococcus aureus [22] = test: Bactericidal activity against Staphylococcus aureus ATCC 700699 assessed as bacteria elimination at 4 times MIC and measured after 6 hrs by time-kill assay; assay type: functional
Staphylococcus aureus [23] = test: Antibacterial activity against antibiotic resistant Staphylococcus aureus ATCC 33591 assessed as inhibition of bacterial growth by CLSI protocol based broth microdilution method; assay type: functional
Enterococcus faecium [24] = test: Antibacterial activity against Enterococcus faecium clinical isolate 1088228 assessed as inhibition of bacterial growth by CLSI protocol based broth microdilution method; assay type: functional
Staphylococcus aureus [25] = test: Inhibition of RNA synthesis in Staphylococcus aureus ATCC 29213 at MIC preincubated for 30 mins followed by [3H]-uridine and measured after 30 mins by [3H]-uridine incorporation based beta scintillation counter analysis; assay type: functional; settings: time 60 min; 1 h
Staphylococcus aureus [26] = test: Inhibition of lipid synthesis in Staphylococcus aureus ATCC 29213 at 0.25 times MIC preincubated for 30 mins followed by [3H]-glycerol and measured after 50 mins by [3H]-glycerol incorporation based beta scintillation counter analysis; assay type: functional; settings: time 80 min; 1.333 h
Staphylococcus aureus [27] = test: Antibacterial activity against Staphylococcus aureus clinical isolate 1088105 assessed as inhibition of bacterial growth by CLSI protocol based broth microdilution method; assay type: functional
Enterococcus faecium [28] = test: Antibacterial activity against Enterococcus faecium clinical isolate 1088925 assessed as inhibition of bacterial growth by CLSI protocol based broth microdilution method; assay type: functional
Staphylococcus aureus [29] = test: Antibacterial activity against Staphylococcus aureus clinical isolate 1088060 assessed as inhibition of bacterial growth by CLSI protocol based broth microdilution method; assay type: functional
Enterococcus faecalis [30] = test: Antibacterial activity against Enterococcus faecalis clinical isolate 1100440 assessed as inhibition of bacterial growth by CLSI protocol based broth microdilution method; assay type: functional
Staphylococcus aureus [31] = test: Inhibition of biofilm formation in Staphylococcus aureus ATCC 25923 at 3.125 to 12.5 ug/ml incubated for 24 hrs by Calgary biofilm device assay; assay type: functional, organism-based; settings: dose 3.125-12.5 µg/ml, DDE = dose-dependent effect
Staphylococcus aureus [32] = test: Antibacterial activity against antibiotic susceptible Staphylococcus aureus ATCC 25923 assessed as inhibition of bacterial growth by CLSI protocol based broth microdilution method; assay type: functional
Staphylococcus aureus [33] = test: Inhibition of lipid synthesis in Staphylococcus aureus ATCC 29213 at 0.5 times MIC preincubated for 30 mins followed by [3H]-glycerol and measured after 50 mins by [3H]-glycerol incorporation based beta scintillation counter analysis; assay type: functional; settings: time 80 min; 1.333 h
Staphylococcus aureus [34] = test: Inhibition of protein synthesis in Staphylococcus aureus ATCC 29213 at MIC preincubated for 30 mins followed by [3H]-leucine and measured after 40 mins by [3H]-leucine incorporation based beta scintillation counter analysis; assay type: functional; settings: time 70.0 min
Enterococcus faecium [35] = test: Antibacterial activity against Enterococcus faecium clinical isolate 1091282 assessed as inhibition of bacterial growth by CLSI protocol based broth microdilution method; assay type: functional

SMILES: O=C(O)c1ccc(-c2nn(-c3ccc(C(F)(F)F)cc3)cc2CNc2ccc(Br)c(C(F)(F)F)c2)cc1
- MIC (Enterococcus faecalis [1]): 8 µg/mL (≈ 13.7 µM)
- MIC (Enterococcus faecalis [2]): 8 µg/mL (≈ 13.7 µM)
- inhibition (Staphylococcus aureus [3]): 55.4%
- inhibition (INH) (Staphylococcus aureus [4]): 44%
- Activity (Staphylococcus aureus [5]): Dde
- MIC (Enterococcus faecium [6]): 0.78 µg/mL (≈ 1.33 µM)
- inhibition (INH) (Staphylococcus aureus [7]): 38.1%
- MIC (Staphylococcus aureus [8]): 4 µg/mL (≈ 6.85 µM)
- log(activity) (Staphylococcus aureus [9]): >2
- inhibition (Staphylococcus aureus [10]): 53.3%
- MIC (Staphylococcus aureus [11]): 1 µg/mL (≈ 1.71 µM)
- MIC (Staphylococcus aureus [12]): 0.78 µg/mL (≈ 1.33 µM)
- MIC (Staphylococcus aureus [13]): 4 µg/mL (≈ 6.85 µM)
- MIC (Staphylococcus aureus [14]): 8 µg/mL (≈ 13.7 µM)
- MIC (Bacillus subtilis): 0.39 µg/mL (≈ 0.667 µM)
- log(activity) (Staphylococcus aureus [15]): 3
- inhibition (INH) (Staphylococcus aureus [16]): 14.1%
- MIC (Staphylococcus aureus [17]): 4 µg/mL (≈ 6.85 µM)
- inhibition (Enterococcus faecalis [18]): Active
- Activity (Enterococcus faecalis [19]): Active
- inhibition (INH) (Staphylococcus aureus [20]): 76%
- inhibition (INH) (Staphylococcus aureus [21]): 43.6%
- Activity (Staphylococcus aureus [22]): >99.9%
- MIC (Staphylococcus aureus [23]): 1.56 µg/mL (≈ 2.67 µM)
- MIC (Enterococcus faecium [24]): 8 µg/mL (≈ 13.7 µM)
- inhibition (INH) (Staphylococcus aureus [25]): 75.5%
- inhibition (INH) (Staphylococcus aureus [26]): 55.4%
- MIC (Staphylococcus aureus [27]): 4 µg/mL (≈ 6.85 µM)
- MIC (Enterococcus faecium [28]): 8 µg/mL (≈ 13.7 µM)
- MIC (Staphylococcus aureus [29]): 4 µg/mL (≈ 6.85 µM)
- MIC (Enterococcus faecalis [30]): 8 µg/mL (≈ 13.7 µM)
- inhibition (Staphylococcus aureus [31]): Dde
- MIC (Staphylococcus aureus [32]): 0.78 µg/mL (≈ 1.33 µM)
- inhibition (INH) (Staphylococcus aureus [33]): 57%
- inhibition (Staphylococcus aureus [34]): 86.1%
- MIC (Enterococcus faecium [35]): 8 µg/mL (≈ 13.7 µM)
